Measurements taken from the Deep4Chem optical property database.

Experiment: solvent given as SMILES

CC(=O)c1ccc(NC(=O)c2ccc(N(C)C)cc2)cc1
emission maximum (in C1CCCCC1): 345 nm
emission maximum (in C1CCOC1): 468 nm
emission maximum (in CC#N): 550 nm
emission maximum (in CCOCC): 470 nm

O=c1oc2ccccc2cc1C#Cc1ccccc1
emission maximum (in CC#N): 406 nm

Cc1ccc(/C=C(\c2ccccc2)c2nc3ccccc3s2)cc1
emission maximum (in C1CCCCC1): 380 nm
emission maximum (in CO): 410 nm

C(#Cc1c2ccccc2c(-c2ccccc2)c2cc3ccccc3cc12)c1ccccc1
emission maximum (in ClCCl): 541 nm

Cn1ccc(-c2nc3ccccc3nc2/C=C/N2CCCC2)c1
emission maximum (in CC#N): 579.08 nm

CCCCN1C(=O)c2cc(Br)c3c4c(Br)c(Br)c5c6c(cc(Br)c(c7c(Br)c(Br)c(c2c37)C1=O)c64)C(=O)N(CCCC)C5=O
emission maximum (in ClC(Cl)Cl): 580 nm

c1cc2ccc3ccc(-n4c5ccccc5c5ccccc54)c4ccc(c1)c2c34
emission maximum (in CCCCCC): 407 nm
emission maximum (in CCO): 398 nm
emission maximum (in CCOC(C)=O): 398 nm
emission maximum (in ClCCl): 399 nm

CCN1CCCc2cc3c(cc21)Oc1cc2c(cc1=N3)C(CS(=O)(=O)[O-])CC(C)(C)[N+]=2CCCC(=O)[O-] (stereo not given)
emission maximum (in O): 690 nm

CC1=N/C(=C\c2cc(N(C)C)ccc2C#N)C(=O)N1C
emission maximum (in C1CCOC1): 560 nm
emission maximum (in CC#N): 606 nm
emission maximum (in CCCCCC): 492 nm

F[B-]1(F)n2c(nc(Br)c2Br)-c2cccc[n+]21
emission maximum (in C1CCCCC1): 463 nm
emission maximum (in C1CCOC1): 484 nm
emission maximum (in C1COCCO1): 493 nm
emission maximum (in CC#N): 492 nm
emission maximum (in CCCCCC): 464 nm
emission maximum (in CO): 487 nm
emission maximum (in ClC(Cl)Cl): 469 nm

Cc1ccc(/C=C/c2nc3ccccc3s2)cc1
emission maximum (in C1CCCCC1): 390 nm
emission maximum (in CO): 405 nm

CCCCc1ccc2c(c1)c1cc(CCCC)ccc1n2-c1ccc(S(=O)(=O)c2ccc(S(=O)(=O)c3ccc(-n4c5ccc(CCCC)cc5c5cc(CCCC)ccc54)cc3)cc2)cc1
emission maximum (in Cc1ccccc1): 450 nm
emission maximum (in c1cc(-n2c3ccccc3c3ccccc32)nc(-n2c3ccccc3c3ccccc32)c1): 467.24 nm

CC(=O)Nc1ccc(C2=N/C(=C\c3ccc(C#N)cc3)C(=O)O2)cc1
emission maximum (in C1COCCO1): 461 nm

CC1(C)C(=O)C=Cc2ccc(N3CCC3)cc21
emission maximum (in O): 555 nm

N[C@@H](Cn1nnc2cc(-c3ccc(N4CCOCC4)cc3)ccc21)C(=O)O
emission maximum (in CO): 384 nm

CN(c1ccccc1)c1ccc(/C=C/c2ccccc2)cc1
emission maximum (in CC#N): 450 nm
emission maximum (in CCCCCC): 385 nm

COc1ccc(OC)c(C2=C3C=CC(=[N+](C)C)C=C3[Si](C)(C)c3cc(N(C)C)ccc32)c1
emission maximum (in O): 665 nm

CCCCN1C(=O)c2cccc3c(N(C)C)ccc(c23)C1=O
emission maximum (in Cc1ccccc1): 486 nm

CCN(CC)c1ccc(/C=C/C(=O)c2c(O)cc(C)oc2=O)cc1
emission maximum (in CC#N): 562 nm
emission maximum (in CCCO): 562 nm
emission maximum (in CCO): 570 nm
emission maximum (in CCOC(C)=O): 545 nm
emission maximum (in Cc1ccccc1): 534 nm
emission maximum (in ClCCl): 575 nm

N#Cc1nc2cnc(N)nc2n1Cc1ccccc1
emission maximum (in C1COCCO1): 381 nm
emission maximum (in CC#N): 381 nm
emission maximum (in CO): 398 nm
emission maximum (in ClCCl): 381 nm
emission maximum (in O): 406 nm

CCCCCCN1C(=O)C(c2ccc(-c3ccc(-n4c5ccccc5c5ccccc54)cc3)cc2)=C(c2ccc(-c3ccc(-n4c5ccccc5c5ccccc54)cc3)cc2)C1=O
emission maximum (in ClC(Cl)Cl): 552 nm
emission maximum (in c1ccc2c(c1)c1ccccc1n2-c1ccc(-c2ccc(-n3c4ccccc4c4ccccc43)cc2)cc1): 580 nm

c1ccc(-c2ccc(-c3ccc(-c4cc(-c5ccc(-c6ccc(-c7ccccc7)cc6)cc5)cc(-c5ccc(-c6ccc(-c7ccccc7)cc6)cc5)c4)cc3)cc2)cc1
emission maximum (in C1COCCO1): 375 nm

F[B-]1(F)n2c(c3cccc4cccc2c43)=Nc2ccc3ccccc3[n+]21
emission maximum (in C1CCOC1): 508 nm
emission maximum (in CC#N): 505 nm
emission maximum (in CCCCCC): 502 nm
emission maximum (in Cc1ccccc1): 511 nm
emission maximum (in ClCCl): 536 nm

CCN(CC)c1ccc(/C=N/c2ccccc2/N=C/c2ccc(N(CC)CC)cc2O)c(O)c1
emission maximum (in CC#N): 502 nm
emission maximum (in CN(C)C=O): 573 nm
emission maximum (in ClCCl): 535 nm

CCC1=C(C)C2=Cc3c4ccccc4c4n3[B-](c3ccncc3)(Oc3ccccc3-4)[N+]2=C1C (stereo not given)
emission maximum (in CC#N): 633 nm
emission maximum (in CCCCCC): 636 nm
emission maximum (in Cc1ccccc1): 639 nm
emission maximum (in ClCCl): 639 nm

CCC1=C(C)C2=C(C)c3cc(I)cn3[B-](F)(F)[N+]2=C1C
emission maximum (in C1CCCCC1): 532 nm
emission maximum (in CC(C)=O): 532.5 nm
emission maximum (in CCO): 534 nm
emission maximum (in CCOC(C)=O): 531.5 nm
emission maximum (in CO): 533.5 nm
emission maximum (in OCC(F)(F)F): 530.5 nm

N#Cc1c(-n2c3ccccc3c3ccccc32)c(-n2c3ccccc3c3ccccc32)cc(-n2c3ccccc3c3ccccc32)c1-n1c2ccccc2c2ccccc21
emission maximum (in CCCCCC): 439.08 nm
emission maximum (in CCO): 468.52 nm
emission maximum (in Cc1ccccc1): 442 nm
emission maximum (in ClCCl): 456.64 nm

CCC1(CC)c2cc(Br)ccc2-c2c1c1c(c3c2C(CC)(CC)c2cc(-c4cccs4)ccc2-3)C(CC)(CC)c2cc(Br)ccc2-1
emission maximum (in C1CCOC1): 371 nm

COc1ccc(/C=C/C2=CC(c3ccccc3)=[O+][B-](F)(F)O2)cc1
emission maximum (in ClCCl): 506 nm

CCCCCCn1c2c(c3cc(-c4ccc5ccc6cccc7ccc4c5c67)ccc31)-c1c(c3cc(-c4ccc5ccc6cccc7ccc4c5c67)ccc3n1CCCCCC)-c1c(c3cc(-c4ccc5ccc6cccc7ccc4c5c67)ccc3n1CCCCCC)-c1c-2c2cc(-c3ccc4ccc5cccc6ccc3c4c56)ccc2n1CCCCCC
emission maximum (in ClCCl): 382 nm
